What was measured:
[1] = effect of maternal administration on blood pressure and heart rate in E22 rabbit dams; format: in vivo, New Zealand white rabbit
Description: Because of the importance of eNOS to the regulation of cardiovascular activity, the effect of maternal administration of 4 and 5 on blood pressure in 22 day-gestation (E22) New Zealand white rabbit dams was determined. There was no effect on heart rate or on systolic or diastolic blood pressure by treatment with 4 or 5.

[2] = system: hypoxia-ischemia of rabbit fetuses; assay: uterine ischemia, global hypoxia-ischemia of rabbit fetuses, neurobehavioral examination of P1 kits; conditions: for number of normal postnatal P1 kits: compared to saline-treated dams; for protection against HI-fetal brain injury: comparison with 7-NI, p<0.05 Fisher's Exact Test; for permeability to the fetal brain: maternal administration
[3] = system: total constitutive NOS activity (both nNOS and eNOS) in fetal brain homogenates; assay: NOS activity and NOx levels in fetal brain after maternal administration; format: in vivo; conditions: E22 rabbit dams
Excerpt: The NOS activity assay in fetal brain homogenates assessed total constitutive NOS activity (i.e., both nNOS and eNOS). […] Therefore changes in NOS activity should correspond to changes in nNOS activity. […] The corresponding decrease in the NO concentration also indicated strong NOS inhibition had occurred.

[4] = Paudler and Blewitt, 1966; cited from earlier work
whole body ischemia = conditions: in vivo; cited from earlier work
nNOS = nNOS (Rattus norvegicus, UniProt P29476); conditions: read-out: Ki nNOS
iNOS = iNOS (Mus musculus, UniProt P29477); assay: biochemical
iNOS, sequence (P29477 whole entry): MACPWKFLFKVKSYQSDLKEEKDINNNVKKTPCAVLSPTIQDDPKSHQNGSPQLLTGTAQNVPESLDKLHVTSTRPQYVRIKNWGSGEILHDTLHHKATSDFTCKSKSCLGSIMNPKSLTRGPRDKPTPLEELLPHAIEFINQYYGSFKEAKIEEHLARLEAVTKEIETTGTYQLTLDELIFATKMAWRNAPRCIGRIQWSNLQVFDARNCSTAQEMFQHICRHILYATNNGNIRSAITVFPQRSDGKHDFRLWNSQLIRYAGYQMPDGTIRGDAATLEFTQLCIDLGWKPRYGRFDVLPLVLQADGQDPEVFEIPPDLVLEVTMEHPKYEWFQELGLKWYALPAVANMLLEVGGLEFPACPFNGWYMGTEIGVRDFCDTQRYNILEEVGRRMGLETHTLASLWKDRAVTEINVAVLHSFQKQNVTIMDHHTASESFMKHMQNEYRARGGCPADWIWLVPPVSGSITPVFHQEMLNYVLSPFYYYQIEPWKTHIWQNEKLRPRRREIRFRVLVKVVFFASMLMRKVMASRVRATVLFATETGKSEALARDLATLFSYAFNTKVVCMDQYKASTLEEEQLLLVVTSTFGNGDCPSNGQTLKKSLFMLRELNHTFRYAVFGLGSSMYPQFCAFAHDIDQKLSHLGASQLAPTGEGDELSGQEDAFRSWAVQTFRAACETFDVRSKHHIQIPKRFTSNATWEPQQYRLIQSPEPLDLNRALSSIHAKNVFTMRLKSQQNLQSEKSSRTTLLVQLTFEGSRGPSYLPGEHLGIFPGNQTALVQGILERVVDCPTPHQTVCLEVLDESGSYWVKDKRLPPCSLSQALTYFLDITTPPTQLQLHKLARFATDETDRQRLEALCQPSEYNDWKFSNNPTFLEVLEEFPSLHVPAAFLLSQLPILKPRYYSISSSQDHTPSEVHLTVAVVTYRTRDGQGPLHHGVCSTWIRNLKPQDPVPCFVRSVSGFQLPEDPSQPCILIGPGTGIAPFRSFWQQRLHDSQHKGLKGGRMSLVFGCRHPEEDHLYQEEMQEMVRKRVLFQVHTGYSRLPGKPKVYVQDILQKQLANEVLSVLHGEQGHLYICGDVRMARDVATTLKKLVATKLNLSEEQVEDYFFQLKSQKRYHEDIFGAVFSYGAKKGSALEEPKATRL

In the case of Cc1cc(N)nc(C[C@H]2CNC[C@H]2NCCNCc2ccc(Cl)cc2)c1 (racemic) [(±)-4], the “effect on heart rate” value [1] is reported as “no effect”, the “effect on systolic or diastolic blood pressure” value [1] is reported as “no effect” and the “incidence of fetal death (dead/total fetuses)” value ([2]; 0/49 is stated for either 4 or 5) is reported as 0/49. For the same molecule, the “Normal (number of kits)” value ([2]; Dose 75 ki × 2, Age 22) was 9, the “Severe (number of kits)” value ([2]; Dose 75 ki × 2, Age 22) was 2 and the “Severe (number of kits)” value ([2]; Dose 75 ki × 2, Age 25) was 2. For the same molecule, the “Normal (number of kits)” value ([2]; Dose 75 ki × 2, Age 29) was 10, the “number of normal postnatal P1 kits” value [2] was “substantially larger number” and the “protection against HI-fetal brain injury” value [2] was “superior to 7-NI”. The fetal/neonatal deaths ([2]; inhibitor 30 min prior to and immediately after uterine ischemia) was “no deaths” and the “permeability to the fetal brain” value [2] was “permeable”.

With Cc1cc(N)nc(C[C@H]2CNC[C@H]2NCCNCCc2cccc(F)c2)c1 (racemic) [(±)-5] the “effect on heart rate” value [1] was “no effect”, the “effect on systolic or diastolic blood pressure” value [1] was “no effect” and the “NO concentration (NOx) in fetal brain” value ([3]; after maternal treatment) was “decrease”. For the same molecule, the “NOS activity in fetal brain” value ([3]; shortly after acute maternal treatment) was “NOS inhibition was observed”, the “effect when administered post-ischemia” value ([2]; administered post-ischemia) was “no effect” and the “number of normal postnatal P1 kits” value [2] was “substantially larger number”. For the same molecule, the “protection against HI-fetal brain injury” value [2] was “superior to 7-NI”, the “permeability to the fetal brain” value [2] was “permeable” and the fetal/neonatal deaths ([2]; rabbit, in vivo) was “no deaths”. For the same molecule, the “incidence of fetal death (dead/total fetuses)” value ([2]; rabbit, in vivo) was 0/49.

With Cc1cc(N)nc(C[C@H]2CNC[C@H]2NCCNCCc2ccccc2)c1 (relative stereo) [JI-6] the “Normal (number of kits)” value ([2]; Dose 200 ki × 2, Age 22) was 9.

For Cc1cc(C)nc(N)c1 [2-amino-4,6-dimethylpyridine], the pKa [4] is listed as 7.12.

For O=[N+]([O-])c1cccc2cn[nH]c12 [7-NI, 7-nitroindazole, reference compound], the “incidence of fetal death (dead/total fetuses)” value ([2]; rabbit, in vivo) was 10/38 and the “incidence of fetal death (stillborn)” value ([2]; rabbit, in vivo) was 26%.

In the case of FC(F)(F)c1ccccc1-n1ccnc1 [TRIM], the “outcome following whole body ischemia” value (whole body ischemia) is listed as “worse outcome”.

In the case of N=C(NCCC[C@H](N)C(=O)N[C@H]1CN[C@H](C(N)=O)C1)N[N+](=O)[O-] [compound 3], the Ki (nNOS) is reported as 0.1 µM and the Ki (iNOS) is reported as 29 µM.

N=C(NCCC[C@H](N)C(=O)O)N[N+](=O)[O-] [εNNA, L-N^ω-nitroarginine] gave a Ki (iNOS) of 4.55 µM.

— patent US20080176907A1, “NOS Inhibitors For Treatment Of Motor Deficit Disorders” (Northwestern University, priority 2006, published 2008)
